# Patent publication EP0388245A1, “Agent resistant to AIDS virus” (TERUMO KABUSHIKI KAISHA, priority 1989, dated 1990)
# Key:
# MT-4 = assay: Toxicity to uninfected MT-4 cells, live cell count by trypan blue after 4 days culture; assay type: cell-based; details: for MT-4 (live cells) / Toxicity (% control): uninfected MT-4 cells; for MT-4 (live cells): 4 days
# Procedure: (§1) A test for the activity to inhibit hyperplasia of HIV was conducted in accordance with the method proposed by Harada et al [Science, 229, 563-5663 (1985)]. Testing conditions: Cell: […] (HTLV-I-carrying cell line) Virus: THLV-IIIb (one kind of HIV); HTLV-IIIb was prepared from the supernatant of the culture broth of MOLT-4/HIV, a HIV-producing cell. The potency of the virus was 1 x 10⁶ TCID 50/ml. Culture medium: RPMI-1640 (containing 10% bovine fetal serum, 100 IV/penicilin, and 100 µg/ml streptomycin) Culture conditions: In each of the wells of a 24-well culture tray, […] cells (6.6 x 10⁵/ml, 0.3 ml) and HTLV-II Ib ([…], 0.2 ml) were placed [multiplicity of infection (MOI = 0.02)] and cultured for 1 hour. After adsorption of virus, Compound A diluted with culture medium (0.5 ml) was added to a total volume of 1.0 ml and cultured at 37°C for 4 days. Cells not infected by HTLV-IIIb dilution aqueous solution and cells not treated with Compound A were used as controls.
# (§2) Virally infected cells and uninfected cells were cultured for 4 days. After the culture, the live cells were counted by the trypan blue tinting method. The property of cytopathic effect suppression was evaluated by comparison of the number of live cells in the culture broths of virally infected cells and uninfected cells both obtained in the absence of Compound A.
# [1] = test system: HTLV-IIIb (one kind of HIV); assay: Test for activity to inhibit hyperplasia of HIV: suppression of cytopathic effect (CPE), live cells counted by trypan blue; assay type: cell-based, human immunodeficiency virus (HIV); details: for MT-4/HIV (live cells): HTLV-IIIb infected MT-4 cells, MOI 0.02, 4 days
# Procedure: as §1, §2
# [2] = test system: Reverse transcriptase originating in avain myeloblastic virum; assay: Test for activity to inhibit reverse transcriptase ([³H] thymidine triphosphate incorporation); assay type: biochemical; parameters: Radio activity #1 / Radio activity #2: unit not given here; details: for % control: inhibition of reverse transcriptase
# Procedure: This test was carried out by the method described below.
# This test solution was prepared by dissolving Compound A in a concentration of 5 mg/ml in dimethyl sulfoxide and diluting the resultant solution with distilled water.
# Fifty (50) µl of the measuring solution and 50 µl of the test solution were mixed and left reacting at 37°C for one hour. The reaction mixture was cooled with ice to stop the reaction. Then 50 µl of […] by a disk of DEAE cellulose paper 2.4 cm in diameter. The wet paper was washed three times with an aqueous 5% […] (with 12 molecules of crystal water) and once each with distilled water and ethanol. The radioactivity was determined with a liquid scintillation counter.
substance,measurement,setting,value
K₇PW₁₀Ti₂O₄₀·6H₂O [Compound A],toxicity,"MT-4; 25 to 100 ug/ml, MT-4",only inconspicuous toxicity
same,MT-4 (live cells),MT-4; Compound A 25 µg/ml,11.8 x 10⁵ cells/ml
same,MT-4 (live cells),MT-4; Compound A 50 µg/ml,9.8 x 10⁵ cells/ml
same,MT-4 (live cells),MT-4; Compound A 100 µg/ml,10.1 x 10⁵ cells/ml
same,MT-4 (live cells),MT-4; Compound A 200 µg/ml,8.5 x 10⁵ cells/ml
same,MT-4 (live cells),MT-4; Compound A 400 µg/ml,6.0 x 10⁵ cells/ml
same,Toxicity (% control),MT-4; Compound A 25 µg/ml,0 % control
same,Toxicity (% control),MT-4; Compound A 50 µg/ml,1 % control
same,Toxicity (% control),MT-4; Compound A 100 µg/ml,0 % control
same,Toxicity (% control),MT-4; Compound A 200 µg/ml,21 % control
same,Toxicity (% control),MT-4; Compound A 400 µg/ml,44 % control
same,activity to control CPE,"[1]; 25 to 100 ug/ml, MT-4/HIV",excelled in activity to control CPE
same,MT-4/HIV (live cells),[1]; Compound A 25 µg/ml,10.0 x 10⁵ cells/ml
same,MT-4/HIV (live cells),[1]; Compound A 50 µg/ml,9.8 x 10⁵ cells/ml
same,MT-4/HIV (live cells),[1]; Compound A 100 µg/ml,8.5 x 10⁵ cells/ml
same,MT-4/HIV (live cells),[1]; Compound A 200 µg/ml,4.8 x 10⁵ cells/ml
same,MT-4/HIV (live cells),[1]; Compound A 400 µg/ml,4.7 x 10⁵ cells/ml
same,% CPE Control,"[1]; MT-4/HIV, Compound A 25 µg/ml",90%
same,% CPE Control,"[1]; MT-4/HIV, Compound A 50 µg/ml",88%
same,% CPE Control,"[1]; MT-4/HIV, Compound A 100 µg/ml",71%
same,% CPE Control,"[1]; MT-4/HIV, Compound A 200 µg/ml",25%
same,% CPE Control,"[1]; MT-4/HIV, Compound A 400 µg/ml",47%
same,Average value (CPM),"[2]; Concentration 12,500 µg/ml",3906.0 CPM
same,Radio activity #1,"[2]; Concentration 12,500 µg/ml",3666
same,Radio activity #2,"[2]; Concentration 12,500 µg/ml",4146
same,% control,"[2]; Concentration 12,500 µg/ml",50.8%
same,Average value (CPM),"[2]; Concentration 25,000 µg/ml",3878.0 CPM
same,Radio activity #1,"[2]; Concentration 25,000 µg/ml",3143
same,Radio activity #2,"[2]; Concentration 25,000 µg/ml",4613
same,% control,"[2]; Concentration 25,000 µg/ml",51.2%
same,Average value (CPM),"[2]; Concentration 50,000 µg/ml",2450.5 CPM
same,Radio activity #1,"[2]; Concentration 50,000 µg/ml",1828
same,Radio activity #2,"[2]; Concentration 50,000 µg/ml",3079
same,% control,"[2]; Concentration 50,000 µg/ml",71.1%
same,Average value (CPM),"[2]; Concentration 100,000 µg/ml",1391.0 CPM
same,Radio activity #1,"[2]; Concentration 100,000 µg/ml",1231
same,Radio activity #2,"[2]; Concentration 100,000 µg/ml",1391
same,% control,"[2]; Concentration 100,000 µg/ml",86.0%
same,Average value (CPM),"[2]; Concentration 200,000 µg/ml",967.0 CPM
same,Radio activity #1,"[2]; Concentration 200,000 µg/ml",970
same,Radio activity #2,"[2]; Concentration 200,000 µg/ml",930
same,% control,"[2]; Concentration 200,000 µg/ml",92.0%
same,activity to inhibit reverse transcriptase,[2]; summary in words of Table 2,manifested an activity to inhibit reverse transcriptase even in a small application rate
